Patent US20240148664A1, “LIPID AND COMPOSITION” (SOGO PHARMACEUTICAL CO., LTD., priority 2021, published 2024)
One block for each compound: values may come before it.

How the values were obtained:
[1] = Measurement of particle size, polydispersity index and zeta potential of lipid nanoparticle (Zetasizer); format: physicochemical
Outline: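 Dialysed LNP solution diluted in ultrapure water; particle size taken as Z-average and PDI by dynamic light scattering (Zetasizer). Zeta potential measured with pH 7.4 Tris-HCl as diluent.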

[2] = siRNA / mRNA encapsulation rate of lipid nanoparticle (RiboGreen); format: physicochemical
Outline: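 LNP solution was read with RiboGreen (ex 480/em 520 nm) with and without 1% Triton X-100 disruption (2 pmol siRNA or mRNA per 40 μL). Encapsulation (%) = (a−b)/a×100, a = total and b = free RNA signal, each a blank-subtracted mean of three readings.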

[3] = test system: HT1080-EGFP (human/fibrosarcoma) cells; assay: Evaluation of toxicity: LDH assay; format: cell-based; conditions: lipid nanoparticle containing siRNA; absorbance relative to control cells without lipid nanoparticle set at 1.00
Protocol: A. Provision of Cells • (i) A liquid medium (DMEM/Ham's F12, FBS+, P/S+) (FBS: fetal bovine serum, P/S: antibiotic) was taken out from a refrigerator and temperature-controlled in an incubator set at 37° C. • (ii) A cryotube containing the cells was taken out from a −80° C. freezer and thawed at once in an incubator set at 37° C. • (iii) A stock solution of the thawed cells was collected in a capped test tube. • (iv) The tube containing the cells was washed with the liquid medium, and the wash was also collected in the test tube. • (v) The tube was subjected to a centrifuge to precipitate the cells. • (vi) The supernatant was aspirated, and the liquid medium was added and gently tapped to disperse the cells. • (vii) A small amount of the cells-dispersed liquid medium was collected, and the number of cells was observed and counted under a microscope. • (viii) The cells were seeded in a 24-well plate such that the number of cells was 2×10^4 cells per well. For the plate for an LDH assay described later, the cells were seeded in a 96-well plate such that the number of cells was 4×10^3 cells per well. • (ix) The 24-well plate or the 96-well plate was placed in an incubator, and the cells were cultured for 24 hours under conditions of 37° C. and 5% CO2.
The introduction of lipid nanoparticles into cells for an LDH assay described later was carried out as follows. • (i) A 96-well plate was taken out from an incubator. • (ii) The liquid medium supernatant in the 96-well plate was aspirated and washed with phosphate buffered saline (PBS). • (iii) 160 μL of a liquid medium containing 10% FBS (FBS+/P/S+) was added to the washed 96-well plate. In addition, 40 μL of an LNP solution having an adjusted concentration was added. • (iv) The 96-well plate was placed in the incubator, and the cells were cultured for 24 hours under conditions of 37° C. and 5% CO2.
For Examples 1 to 9, a CCK-8 assay or an LDH assay was carried out to measure the metabolic activity of viable cells and relatively quantify the number of surviving cells to evaluate the toxicity of lipid nanoparticles.
An LDH assay was carried out by using a viable cell counting kit (DOJINDO LABORATORIES, Cytotoxicity LDH Assay Kit-WST) as follows. • (i) 20 μL of a lysis buffer was added to each of positive control wells and incubated at 37° C. for 30 minutes in an incubator. • (ii) 100 μL of the supernatant was taken from each well and transferred to a 96-well plate for measurement. • (iii) 100 μL of the reagent mixture attached to the kit was added to all the wells, and a color reaction was carried out for 30 minutes at room temperature with exclusion of light. • (iv) 50 μL of the stop solution reagent attached to the kit was added to all the wells. • (v) The 96-well plate was measured under conditions of a measurement wavelength of 490 nm and a target wavelength of 630 nm with a plate reader (manufactured by TECAN, Infinite M200) to calculate the absorbance. The absorbance was calculated with the absorbance of control cells to which no lipid nanoparticle was added set at 1.00. When the obtained value was 0.50 or less, a rating of double-circle (excellent) was given, when the obtained value was more than 0.50 and 1.0 or less, a rating of circle (good) was given, when the obtained value was more than 1.0 and less than 6.0, a rating of triangle (fair) was given, and when the obtained value was 6.0 or more, a rating of X-mark (poor) was given.

[4] = lipid nanoparticle containing siRNA, main lipid/DPPC/cholesterol=45/10/45, Z-average in ultrapure water
[5] = lipid nanoparticle containing siRNA, main lipid/DPPC/cholesterol=45/10/45, ultrapure water
[6] = lipid nanoparticle containing siRNA, pH 7.4 Tris-HCl
[7] = siRNA encapsulation rate of lipid nanoparticle
[8] = mRNA lipid nanoparticle for in vivo experiment, PEG-modified lipid (PEG2000-DMG 1.5 mol %) present
[9] = mRNA lipid nanoparticle for in vivo experiment, PEG-modified lipid absent

Structure (SMILES): CCCCCCCC/C=C\CCCCCCCCC(CCCCCCC/C=C\CCCCCCCC)OC(=O)C(CCC(=O)O)NC(=O)C(N)CCCNC(=N)N (stereo not shown) [Example 2, 4-(2-amino-5-guanidinopentanamido)-5-(((9Z,27Z)-hexatriaconta-9,27-dien-18-yl)oxy)-5-oxopentanoic acid]
Particle size (nm) [1, 4]: 119.7 nm | PDI [1, 5]: 0.099 | Zeta potential (mV) [1, 6]: 9.59 mV | PDI [1, 8]: 0.19 | Particle size (nm) [1, 8]: 92.8 nm | Zeta potential (mV) [1, 8]: 16.71 mV | PDI [1, 9]: 0.10 | Particle size (nm) [1, 9]: 119.7 nm | Zeta potential (mV) [1, 9]: 3.92 mV | Encapsulation rate (%) [2, 8]: 93.2% | Encapsulation rate (%) [2, 9]: 91.3% | Encapsulation rate (%) [2, 7]: 99% | LDH Assay [3]: ⊚ (When the obtained value was 0.50 or less, a rating of double-circle (excellent) was given)

Structure (SMILES): CCCCCCCC/C=C\CCCCCCCCC(CCCCCCC/C=C\CCCCCCCC)OC(=O)C(CO)NC(=O)C(N)CCCNC(=N)N [Example 4, (9Z,27Z)-hexatriaconta-9,27-dien-18-yl (2S)-2-((S)-2-amino-5-guanidinopentanamido)-3-hydroxypropionate]
Particle size (nm) [1, 4]: 103.6 nm | PDI [1, 5]: 0.101 | Zeta potential (mV) [1, 6]: 15.7 mV | Encapsulation rate (%) [2, 7]: 100% | LDH Assay [3]: Δ (when the obtained value was more than 1.0 and less than 6.0, a rating of triangle (fair) was given)

Structure (SMILES): CCCCCCCC/C=C\CCCCCCCCC(CCCCCCC/C=C\CCCCCCCC)OC(=O)C(NC(=O)C(N)CCCNC(=N)N)C(C)O [Example 5, (9Z,27Z)-hexatriaconta-9,27-dien-18-yl (2S)-2-((S)-2-amino-5-guanidinopentanamido)-3-hydroxybutanoate]
Particle size (nm) [1, 4]: 109.2 nm | PDI [1, 5]: 0.084 | Zeta potential (mV) [1, 6]: 15.2 mV | Encapsulation rate (%) [2, 7]: 100% | LDH Assay [3]: ⊚ (When the obtained value was 0.50 or less, a rating of double-circle (excellent) was given)

Structure (SMILES): CCCCCCCC/C=C\CCCCCCCCC(CCCCCCC/C=C\CCCCCCCC)OC(=O)[C@H](CCSC)NC(=O)[C@@H](N)CCCNC(=N)N (stereo partly shown) [Example 6, (9Z,27Z)-hexatriaconta-9,27-dien-18-yl arginylmethioninate]
Particle size (nm) [1, 4]: 125.9 nm | PDI [1, 5]: 0.118 | Zeta potential (mV) [1, 6]: 21.9 mV | Encapsulation rate (%) [2, 7]: 100% | LDH Assay [3]: ◯ (when the obtained value was more than 0.50 and 1.0 or less, a rating of circle (good) was given)

Continued, in another order:

Particle size (nm) [1, 4]: 117.1 nm | PDI [1, 5]: 0.085 | Zeta potential (mV) [1, 6]: −7.75 mV | Encapsulation rate (%) [2, 7]: 95%
Structure (SMILES): CCCCCCCC/C=C\CCCCCCCCC(CCCCCCC/C=C\CCCCCCCC)OC(=O)C(CC(=O)O)NC(=N)N (stereo not shown) [Comparative Example 2, 3-guanidino-4-(((9Z,27Z)-hexatriaconta-9,27-dien-18-yl)oxy)-4-oxobutanoic acid, reference compound]
LDH Assay [3]: ⊚ (When the obtained value was 0.50 or less, a rating of double-circle (excellent) was given)

Particle size (nm) [1, 4]: 137.0 nm | PDI [1, 5]: 0.329 | Zeta potential (mV) [1, 6]: −7.66 mV | Encapsulation rate (%) [2, 7]: 95%
Structure (SMILES): CCCCCCCC/C=C\CCCCCCCCC(CCCCCCC/C=C\CCCCCCCC)OC(=O)C(CCC(=O)O)NC(=N)N (stereo not shown) [Comparative Example 3, 4-guanidino-5-(((9Z,27Z)-hexatriaconta-9,27-dien-18-yl)oxy)-5-oxopentanoic acid, reference compound]
LDH Assay [3]: Δ (when the obtained value was more than 1.0 and less than 6.0, a rating of triangle (fair) was given)

Particle size (nm) [1, 4]: 116.5 nm | PDI [1, 5]: 0.169 | Zeta potential (mV) [1, 6]: 6.98 mV | Encapsulation rate (%) [2, 7]: 99%
Structure (SMILES): CCCCCCCC/C=C\CCCCCCCCC(CCCCCCC/C=C\CCCCCCCC)OC(=O)C(CC(=O)O)NC(=O)C(N)CCCNC(=N)N (stereo not shown) [Example 1, 3-(2-amino-5-guanidinopentanamido)-4-(((9Z,27Z)-hexatriaconta-9,27-dien-18-yl)oxy)-4-oxobutanoic acid]
LDH Assay [3]: ⊚ (When the obtained value was 0.50 or less, a rating of double-circle (excellent) was given)
